According to paper PMC8965563, “PaP1, a Broad-Spectrum Lysin-Derived Cationic Peptide to Treat Polymicrobial Skin Infections” (Frontiers in Microbiology, 2022):
Like-named read-outs stand apart in the source and are kept apart here.

How the values were obtained:
[1] = tested on: S. aureus strain NRS384 (MRSA); assay: Murine burn wound infection model, prophylactic; format: in vivo, Staphylococcus aureus; settings: monotherapy: 1% (wt/vol) PaP1, or 0.02% or 0.2% (wt/vol) mupirocin, topical in diH2O, 1 h before and 2 h after infection with 10^6 CFU; female CD1 mice, third-degree burns; counts 3 h post-infection; control ~10^6 CFU/g tissue; geometric mean
[2] = tested on: P. aeruginosa strain PAO1; settings: 20 mM Tris–HCl, pH 7.2, 1 h, 37°C, log-phase bacteria ~10^5–10^6 CFU/ml, limit of detection 10 CFU/ml, triplicate experiments
[3] = peptide 10 μg/ml, serial dilution and plating

Molecule | reduction of MRSA viability vs untreated control [1] | reduction of bacterial viability (log10-fold kill) [2, 3] | reduction of bacterial viability (log10-fold kill) ([2]; peptide 5 μg/ml, plating)
C/C(=C\C(=O)OCCCCCCCCC(=O)O)C[C@@H]1OC[C@H](C[C@@H]2O[C@H]2[C@@H](C)[C@H](C)O)[C@@H](O)[C@H]1O [mupirocin] | 1.1–1.2 log10-fold | – | –
NAGDYAGAAEQFLRWNKAGGKVLPGLVRRRA [PaP1-2] | – | 1.2 log10-fold | –
NAGDYAGAAEQFLRWNKAGGKVLPGLVRRRASERELFLGAA [PaP1-1] | – | ineffective | ineffective
NAGDYAGAAEQFLRWNKAGGKVLPGLVRRRK [PaP1-3] | – | below the limit of detection | 2.4 log10-fold
QYCANDRVGNLWVEAQEGRKPLRSSAKFKGGAQRRSGLA [PaP1-6] | – | retains bactericidal activity | –
